The subject of data set [1] is Nakaseomyces glabratus. In words: Antifungal activity against Candida glabrata isolated from candidemia patient after 48 hrs. It is filed as functional.
In data set [2] the test system is Nakaseomyces glabratus. In words: Reduction of kidney fungal burden in Candida glabrata infected ip dosed neutropenic Swiss Webster mouse. It counts as functional.
Data set [3] deals with Nakaseomyces glabratus. The data set is described as follows: Reduction of lung fungal burden in Candida glabrata infected ip dosed neutropenic Swiss Webster mouse. It counts as functional.
The subject of data set [4] is Nakaseomyces glabratus. In words: Reduction of spleen fungal burden in Candida glabrata infected ip dosed neutropenic Swiss Webster mouse. It counts as functional.
Data set [5] concerns Nakaseomyces glabratus. In words: Reduction of kidney fungal burden in Candida glabrata infected neutropenic Swiss Webster mouse at >=50 mg/kg, ip after 7 days. It counts as functional, organism-based.
A short description of data set [6]: Serum clearance in Candida glabrata infected neutropenic Swiss Webster mouse. It counts as ADME, organism-based.
Data set [7] deals with Nakaseomyces glabratus. The data set is described as follows: Reduction of fungal burden in Candida glabrata infected neutropenic Swiss Webster mouse at 100 mg/kg, ip after 7 days. It counts as functional, organism-based. Further details: dose 100 mg/kg.
Data set [8] relates to Nakaseomyces glabratus. The data set is described as follows: Antifungal activity against Candida glabrata isolated from candidemia patient after 24 hrs. It counts as functional.

The values below come from ChEMBL document CHEMBL1142085, “Once-weekly micafungin therapy is as effective as daily therapy for disseminated candidiasis in mice with persistent neutropenia” (Antimicrob Agents Chemother, 2007).

Converted amounts (≈) assume the structure as drawn. The source made the active and inactive calls. The rule behind the calls is not given here. *1 amine or outer side, *2 acyl side, *3 side chain or, on linkers, in order; H or OH if unused. Where a SMILES comes first, the peptide text is derived from it. Bridges are numbered along the chain shown (N, C = ends). [ ]: non-standard residue; d: D form. The star is where a group is joined. hTyr(3S-OH,4S-OH,3'-OSO3H) = N[C@H](C(=O)O)[C@H](O)[C@@H](O)c1ccc(O)c(OS(=O)(=O)O)c1; Orn(4R-OH,5R-OH) = O=C([C@H](C[C@@H](O)[C@@H](O)N[*:3])N[*:1])[*:2]; Pro(3S-OH,4S-Me) = C[C@H]1CN[C@H](C(=O)O)[C@H]1O; X1 = CCCCCOc1ccc(-c2cc(-c3ccc(C(=O)*)cc3)no2)cc1; Gln(3R-OH) = NC(=O)C[C@@H](O)[C@H](N)C(=O)O; Hyp = O=C(O)[C@@H]1C[C@@H](O)CN1

The MIC is the least concentration at which growth counts as inhibited. In general, ED50 refers to the dose that gives a 50% effect, or the effect in half of the subjects. A higher ED50 goes with weaker potency. As a reminder, the clearance is the rate of elimination divided by the concentration. Read a high clearance as efficient removal. In the case of `CCCCCOc1ccc(-c2cc(-c3ccc(C(=O)N[C@H]4C[C@@H](O)[C@@H](O)NC(=O)[C@@H]5[C@@H](O)[C@@H](C)CN5C(=O)[C@H]([C@H](O)CC(N)=O)NC(=O)[C@H]([C@H](O)[C@@H](O)c5ccc(O)c(OS(=O)(=O)O)c5)NC(=O)[C@@H]5C[C@@H](O)CN5C(=O)[C@H]([C@@H](C)O)NC4=O)cc3)no2)cc1` [MICAFUNGIN] (X1-[Orn(4R-OH,5R-OH)]T[Hyp][hTyr(3S-OH,4S-OH,3'-OSO3H)][Gln(3R-OH)][Pro(3S-OH,4S-Me)]; lactam 1-C), the minimal inhibitory concentration (MIC) in data set [1] and in data set [8] was 0.02 µg/mL (≈ 0.0157 µM) throughout. Moreover, the ED50 came to 14.7 mg/kg in data set [2], 17.3 mg/kg in data set [3] and 7.38 mg/kg in data set [4]. Besides, the result in data set [5] and in data set [7] was Active. The molecule also showed a clearance in data set [6] of 0.0133 mL/min.
